Measured values as given in patent publication US8969516B2, “Method of hydrolysis of peptide bond” (priority 2006, dated 2015).

Experiment: MALDI-TOF screening of Ni^2+ dependent hydrolysis in a combinatorial peptide library
Assay type: physicochemical
Conditions: Ni^2+ 2 mM, pH 8.2, 10 mM Tris, score=24/tm
Procedure, shortened: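 MALDI-TOF read-out: appearance of Ser/Thr-X-His-Z-Lys-Phe-Leu-NH2 product signals, plus loss of substrate signals, checked by eye at 2, 4, 6, 8 h. Conditions: 1 mM peptide mixture, 2 mM Ni2+, 10 mM Tris pH 8.2, 37 or 45 °C.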

[1] = CH3CO-Gly-Ala-Thr-X-His-Z-Lys-Phe-Leu-NH2 library, 37° C.
[2] = CH3CO-Gly-Ala-Thr-X-His-Z-Lys-Phe-Leu-NH2 library, 45° C.
[3] = CH3CO-Gly-Ala-Ser-X-His-Z-Lys-Phe-Leu-NH2 library, 37° C.
[4] = CH3CO-Gly-Ala-Ser-X-His-Z-Lys-Phe-Leu-NH2 library, 45° C.

Substance	hydrolysis score from MALDI-TOF screening [1]	hydrolysis score from MALDI-TOF screening [2]	hydrolysis score from MALDI-TOF screening [3]	hydrolysis score from MALDI-TOF screening [4]
Ac-GATAHFKFL-NH2 [TAHF]	0 (a score of 0 if no trace of the product of hydrolysis was seen after 8 hours of incubation)	0 (a score of 0 if no trace of the product of hydrolysis was seen after 8 hours of incubation)		
Ac-GASVHKKFL-NH2 [SVHK]			3 (a score of 3 for detection at 8 hours)	4 (a score of 4 for detection at 6 hours)
Ac-GASSHQKFL-NH2 [SSHQ]			0 (a score of 0 if no trace of the product of hydrolysis was seen after 8 hours of incubation)	0 (a score of 0 if no trace of the product of hydrolysis was seen after 8 hours of incubation)
Ac-GATTHNKFL-NH2 [TTHN]	0 (a score of 0 if no trace of the product of hydrolysis was seen after 8 hours of incubation)	0 (a score of 0 if no trace of the product of hydrolysis was seen after 8 hours of incubation)		
Ac-GASHHMKFL-NH2 [SHHM]			0 (a score of 0 if no trace of the product of hydrolysis was seen after 8 hours of incubation)	0 (a score of 0 if no trace of the product of hydrolysis was seen after 8 hours of incubation)
Ac-GASRHLKFL-NH2 [SRHL]			12 (a score of 12, if it was seen to be partially hydrolysed at 2 hours)	12 (a score of 12, if it was seen to be partially hydrolysed at 2 hours)
Ac-GATVHAKFL-NH2 [TVHA]	0 (a score of 0 if no trace of the product of hydrolysis was seen after 8 hours of incubation)	0 (a score of 0 if no trace of the product of hydrolysis was seen after 8 hours of incubation)		
Ac-GASWHGKFL-NH2 [SWHG]			0 (a score of 0 if no trace of the product of hydrolysis was seen after 8 hours of incubation)	3 (a score of 3 for detection at 8 hours)
Ac-GASYHWKFL-NH2 [SYHW]			6 (a score of 6 for detection at 4 hours)	6 (a score of 6 for detection at 4 hours)
Ac-GATTHAKFL-NH2 [TTHA]	0 (a score of 0 if no trace of the product of hydrolysis was seen after 8 hours of incubation)	0 (a score of 0 if no trace of the product of hydrolysis was seen after 8 hours of incubation)		
Ac-GASVHYKFL-NH2 [SVHY]			0 (a score of 0 if no trace of the product of hydrolysis was seen after 8 hours of incubation)	3 (a score of 3 for detection at 8 hours)
Ac-GASWHEKFL-NH2 [SWHE]			0 (a score of 0 if no trace of the product of hydrolysis was seen after 8 hours of incubation)	0 (a score of 0 if no trace of the product of hydrolysis was seen after 8 hours of incubation)
Ac-GASGHDKFL-NH2 [SGHD]			0 (a score of 0 if no trace of the product of hydrolysis was seen after 8 hours of incubation)	0 (a score of 0 if no trace of the product of hydrolysis was seen after 8 hours of incubation)
Ac-GASQHGKFL-NH2 [SQHG]			0 (a score of 0 if no trace of the product of hydrolysis was seen after 8 hours of incubation)	0 (a score of 0 if no trace of the product of hydrolysis was seen after 8 hours of incubation)
Ac-GATQHGKFL-NH2 [TQHG]	0 (a score of 0 if no trace of the product of hydrolysis was seen after 8 hours of incubation)	0 (a score of 0 if no trace of the product of hydrolysis was seen after 8 hours of incubation)		
Ac-GATPHDKFL-NH2 [TPHD]		0 (a score of 0 if no trace of the product of hydrolysis was seen after 8 hours of incubation)		
Ac-GASNHLKFL-NH2 [SNHL]			4 (a score of 4 for detection at 6 hours)	4 (a score of 4 for detection at 6 hours)
Ac-GASMHMKFL-NH2 [SMHM]			3 (a score of 3 for detection at 8 hours)	3 (a score of 3 for detection at 8 hours)
Ac-GASPHDKFL-NH2 [SPHD]			0 (a score of 0 if no trace of the product of hydrolysis was seen after 8 hours of incubation)	0 (a score of 0 if no trace of the product of hydrolysis was seen after 8 hours of incubation)
Ac-GATLHKKFL-NH2 [TLHK]	0 (a score of 0 if no trace of the product of hydrolysis was seen after 8 hours of incubation)	3 (a score of 3 for detection at 8 hours)		

Substance	hydrolysis score from MALDI-TOF screening [1]	hydrolysis score from MALDI-TOF screening [2]	hydrolysis score from MALDI-TOF screening [3]	hydrolysis score from MALDI-TOF screening [4]
Ac-GASIHYKFL-NH2 [SIHY]			0 (a score of 0 if no trace of the product of hydrolysis was seen after 8 hours of incubation)	0 (a score of 0 if no trace of the product of hydrolysis was seen after 8 hours of incubation)
Ac-GASPHWKFL-NH2 [SPHW]			0 (a score of 0 if no trace of the product of hydrolysis was seen after 8 hours of incubation)	0 (a score of 0 if no trace of the product of hydrolysis was seen after 8 hours of incubation)
Ac-GASLHRKFL-NH2 [SLHR]			3 (a score of 3 for detection at 8 hours)	4 (a score of 4 for detection at 6 hours)
Ac-GATMHVKFL-NH2 [TMHV]	0 (a score of 0 if no trace of the product of hydrolysis was seen after 8 hours of incubation)	0 (a score of 0 if no trace of the product of hydrolysis was seen after 8 hours of incubation)		
Ac-GASNHWKFL-NH2 [SNHW]			6 (a score of 6 for detection at 4 hours)	6 (a score of 6 for detection at 4 hours)
Ac-GATFHVKFL-NH2 [TFHV]	0 (a score of 0 if no trace of the product of hydrolysis was seen after 8 hours of incubation)	0 (a score of 0 if no trace of the product of hydrolysis was seen after 8 hours of incubation)		
Ac-GATRHPKFL-NH2 [TRHP]	0 (a score of 0 if no trace of the product of hydrolysis was seen after 8 hours of incubation)	0 (a score of 0 if no trace of the product of hydrolysis was seen after 8 hours of incubation)		
Ac-GASHHVKFL-NH2 [SHHV]			6 (a score of 6 for detection at 4 hours)	6 (a score of 6 for detection at 4 hours)
Ac-GASIHIKFL-NH2 [SIHI]			3 (a score of 3 for detection at 8 hours)	3 (a score of 3 for detection at 8 hours)
Ac-GATFHMKFL-NH2 [TFHM]	0 (a score of 0 if no trace of the product of hydrolysis was seen after 8 hours of incubation)	0 (a score of 0 if no trace of the product of hydrolysis was seen after 8 hours of incubation)		
Ac-GATHHVKFL-NH2 [THHV]	0 (a score of 0 if no trace of the product of hydrolysis was seen after 8 hours of incubation)	6 (a score of 6 for detection at 4 hours)		
Ac-GATLHIKFL-NH2 [TLHI]	0 (a score of 0 if no trace of the product of hydrolysis was seen after 8 hours of incubation)	0 (a score of 0 if no trace of the product of hydrolysis was seen after 8 hours of incubation)		
Ac-GASQHYKFL-NH2 [SQHY]			3 (a score of 3 for detection at 8 hours)	4 (a score of 4 for detection at 6 hours)
Ac-GASLHVKFL-NH2 [SLHV]			0 (a score of 0 if no trace of the product of hydrolysis was seen after 8 hours of incubation)	3 (a score of 3 for detection at 8 hours)
Ac-GATWHHKFL-NH2 [TWHH]	0 (a score of 0 if no trace of the product of hydrolysis was seen after 8 hours of incubation)	0 (a score of 0 if no trace of the product of hydrolysis was seen after 8 hours of incubation)		
Ac-GASPHKKFL-NH2 [SPHK]			0 (a score of 0 if no trace of the product of hydrolysis was seen after 8 hours of incubation)	0 (a score of 0 if no trace of the product of hydrolysis was seen after 8 hours of incubation)
Ac-GATRHIKFL-NH2 [TRHI]	6 (a score of 6 for detection at 4 hours)	12 (a score of 12, if it was seen to be partially hydrolysed at 2 hours)		
Ac-GATYHSKFL-NH2 [TYHS]	0 (a score of 0 if no trace of the product of hydrolysis was seen after 8 hours of incubation)	0 (a score of 0 if no trace of the product of hydrolysis was seen after 8 hours of incubation)		
Ac-GATMHLKFL-NH2 [TMHL]	0 (a score of 0 if no trace of the product of hydrolysis was seen after 8 hours of incubation)	0 (a score of 0 if no trace of the product of hydrolysis was seen after 8 hours of incubation)		
Ac-GASFHVKFL-NH2 [SFHV]			3 (a score of 3 for detection at 8 hours)	6 (a score of 6 for detection at 4 hours)
